The values that follow come from US10316077B2, “Cell-penetrating ATF5 polypeptides and uses thereof” (Sapience Therapeutics, Inc., priority 2017, dated 2019).

In general, EC50 refers to the concentration at which the effect is half-maximal.

“And” between values parts separate entries of the source, which are not always exact repeats. Identical values can stand only once. Ends that are not written are not given here.

Series [1] deals with U87 cells. Nature of the series: Apo-ONE caspase 3/7 activation assay in U87 glioblastoma cells. The format is cell-based. The protocol: Activation of caspase enzymes occurs in the early stages of apoptosis. In this Example, we investigated the effect on caspase activation of ST-3 in combination with the Bcl-2 inhibitor ABT-263 (Navitoclax). U87 cells were prepared as described in Example 2 for T98G cells. Lyophilized ST-3 was freshly reconstituted in Tris Buffer at a concentration of 5 mg/mL, and adjusted to a working concentration of 200 μM. ST-3 was added to cells in 100 μL Tris Buffer at a final concentration range of 0-20 μM. […] Plates were incubated at ambient temperature in the dark for 1.5-2 hours. Fluorescence was recorded by Eppendorf PlateReader AF2200 at Ex. 485 nm/Em. 527 nm.

The subject of series [2] is U87 cells. Nature of the series: Annexin V/PI cell viability assay in U87 cells. Conditions: 48-hour incubation, read-out: EC50 (μM) of ATF-5-Derived Polypeptides in Cancer Cells, U87. The format is cell-based. The protocol:
(§1) ST-3, reconstituted at a concentration of 10 mg/mL in 20 mM His, pH 7.5, was added to each well at a volume of 50 μL to a final concentration range of 0-80 μM. Cells were incubated with ST-3 for 48 hours at 37° C. Cell viability was quantified by flow cytometry using an Annexin V FITC apoptosis detection kit from Abcam. Briefly, cells were washed with PBS and resuspended in 1× assay buffer containing Annexin V FITC and propidium iodide (PI). Annexin V detects apoptotic cells, and PI stains dead cells. After staining, apoptotic cells show green fluorescence, dead cells show red and green fluorescence, and live cells show little or no fluorescence. Cells were selected for analysis based on forward scatter (FSC) vs. side scatter (SSC), and analyzed by BD Accuri C6 Plus flow cytometer to detect Annexin V-FITC binding (Ex=488 nm; Em=530 nm) using FITC signal detector and PI staining by the phycoerythrin emission signal detector. Percentage of Annexin V^low and PI^low were quantified and presented as % Viability.
(§2) Alternatively, adherent U251 or U87 cells were set at a density of 3.5×10^3 cells/well in 150 μL of media on day −1. On day 0, media was removed and replenished with 150 μL of fresh media, and cells were treated with ST-3 as described. […] Cell viability was determined as described above for suspension cells.

In series [3] the test system is HL60 promyelocytic leukemia (PML) cells. Nature of the series: Annexin V/PI cell viability assay in HL60 cells. Type of series: cell-based, human. As to conditions: for EC50: HL60, Annexin V/PI viability, 48 hours, read-out: EC50 (μM) of ATF-5-Derived Polypeptides in Cancer Cells, HL60. The protocol: as §1
The subject of series [4] is T98G GBM cells. Nature of the series: CellTiter-Blue cell viability assay in T98G cells. As to conditions: read-out: EC50 (μM) of ATF-5-Derived Polypeptides in Cancer Cells, T98G, 72 hours.
Procedure: (§3) T98G cells were set at a density of 2×10^3/well in 200 μL of RPMI+1.5% fetal bovine serum (FBS) in black-walled Nunc™ MicroWell™ 96-Well Optical-Bottom Plates with Polymer Base.
(§4) On day −1, adherent T98G cells were washed of complete media (RPMI+10% FBS) with 6 mL Dulbecco's Phosphate Buffered Saline (DPBS), and dissociated from T25 Nunclon™ Delta flask with 2 mL trypsin at room temperature. Trypsin was quenched with 6 mL complete media, and cells were resuspended in fresh complete media at a concentration of 1×10^6 cells/mL. Cells were then adjusted to a concentration of 1×10^4 cells/mL in RPMI+1.5% FBS, and 200 μL of culture was added to each well (B2 to G11) of a Nunc™ 96-well Flat Bottom Black Polystyrol Clear Bottom plate to a final cell concentration of 2×10^3 cells/well. Cells were set in an incubator at 37° C. and 5% CO2 with humidity for 24 hours.
(§5) On day 0, 100 μL of media was removed from each well.
(§6) On day 3, media was removed from wells, and wells were washed with 100 μL DPBS. Cells were resuspended in 100 μL RPMI+10% FBS. CellTiter-Blue® Cell Viability Assay (Promega Corp., Madison, Wis.) was performed by adding 20 μL of CellTiter-Blue® reagent to each well. Plates were returned to the incubator at 37° C. and 5% CO2 with humidity for 1.5-2 hours. CellTiter-Blue® assay results were read by Eppendorf PlateReader AF2200 at Ex. 535 nm/Em. 595 nm according to manufacturer's instructions. Data is presented as % Viability. Cell viability was calculated as (Sample value/Buffer control value)×100. EC50 values were calculated using GraphPad Prism v.7 XML.
Another series deals with U251 GBM cells. Nature of the series: Annexin V/PI cell viability assay in U251 cells. The format is cell-based. As to conditions: 48-hour incubation, read-out: EC50 (μM) of ATF-5-Derived Polypeptides in Cancer Cells, U251. The protocol: as §1, §2
A further series deals with neoplastic cells. Conditions: systemically administered; cited from earlier work.
For series [5], the system named is T98G GBM cells.
Procedure: as §3, §4, §5, §6

For the compound `CN[C@@H]1C[C@H]2O[C@@](C)([C@@H]1OC)n1c3ccccc3c3c4c(c5c6ccccc6n2c5c31)C(=O)NC4` [Positive Control, staurosporine], the “% Caspase Activation, positive control” value in the series with U87 cells [1] (staurosporine 10 μM, reference set to 100) stood at 100%.

For `CC1(C)CCC(c2ccc(Cl)cc2)=C(CN2CCN(c3ccc(C(=O)NS(=O)(=O)c4ccc(N[C@H](CCN5CCOCC5)CSc5ccccc5)c(S(=O)(=O)C(F)(F)F)c4)cc3)CC2)C1` [ABT-263, ABT-263 (Navitoclax)], the “% Caspase Activation, ABT-263 alone” value in the series with U87 cells [1] (ST-3 0 μM, ABT-263 0.5 μM, % of positive control) is 15.5% and 15.32%.

With “RQIKIWFQNRRMKWKKLEQRAEELARENEELLEKEAEELEQENAELEGECQGLEARNRELRERAESV [ST-2]”, the EC50 (in the series on U87 cells [2]; in series [3]; with T98G GBM cells [4]; with U251 GBM cells) was greater than 200 µM in each case. Also, in the series with neoplastic cells, the “blood-brain barrier crossing, cell entry and apoptosis of neoplastic cells” value was “can cross the blood-brain barrier, enter cells, and selectively trigger the apoptotic death of neoplastic cells”.

For the compound “RQIKIWFQNRRMKWKKLEGECQGLEARNRELKERAESV [ST-3]”, the EC50 with U87 cells [2] came out at 45 µM; in series [3], 16 µM; in the series with T98G GBM cells [4], 69 µM; in the series on U251 GBM cells it was 42 µM. Besides, the “cytotoxic activity compared to ST-2” value in the series on T98G GBM cells [5] is “unexpectedly superior cytotoxic activity over ST-2”.

“YGRKKRRQRRLEGECQGLEARNRELKERAESV [ATF5 Polypeptide with Tat CPP]”: the “cytotoxic activity” value in series [3] (HL-60 cell viability assay) is given as “has cytotoxic activity”.
